“And” between values parts separate entries of the source, which are not always exact repeats. Equal values may be shown once. Toxic doses and inconclusive results are not listed. Cut-off read from the data, not from the text of the source: active = T/C of 150% or more; inactive = T/C below 125%.
System: L1210 leukemia ip in BDF1 mice, survival T/C
Experiment: NCI In Vivo Anticancer Drug Screen. Data for tumor model L1210 Leukemia (intraperitoneal) in B6D2F1 (BDF1) mice
Conditions: endpoint: mean survival time, higher = longer survival
How it was run: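 Value reflects the ratio of survival in compound-treated mice to survival in vehicle-treated controls, with both groups carrying the same transplanted tumor.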

[1] = dose: 100.0 mg/kg/injection, schedule: Q01DX001 (ip), vehicle: saline
[2] = dose: 200.0 mg/kg/injection, schedule: Q01DX001 (ip), vehicle: saline
[3] = dose: 100.0 mg/kg/injection, schedule: Q01DX001 (ip), vehicle: saline with Tween-80
[4] = dose: 100.0 mg/kg/injection, schedule: Q01DX009 (ip), vehicle: saline with Tween-80
[5] = dose: 100.0 mg/kg/injection, schedule: Q04DX003 (ip), vehicle: saline with Tween-80
[6] = dose: 200.0 mg/kg/injection, schedule: Q01DX001 (ip), vehicle: saline with Tween-80
[7] = dose: 200.0 mg/kg/injection, schedule: Q01DX009 (ip), vehicle: saline with Tween-80
[8] = dose: 200.0 mg/kg/injection, schedule: Q04DX003 (ip), vehicle: saline with Tween-80
[9] = dose: 400.0 mg/kg/injection, schedule: Q01DX001 (ip), vehicle: saline with Tween-80
[10] = dose: 400.0 mg/kg/injection, schedule: Q01DX009 (ip), vehicle: saline with Tween-80
[11] = dose: 400.0 mg/kg/injection, schedule: Q04DX003 (ip), vehicle: saline with Tween-80
[12] = dose: 100.0 mg/kg/injection, schedule: Q04DX002 (ip), vehicle: saline with Tween-80
[13] = dose: 200.0 mg/kg/injection, schedule: Q04DX002 (ip), vehicle: saline with Tween-80
[14] = dose: 400.0 mg/kg/injection, schedule: Q04DX002 (ip), vehicle: saline with Tween-80
[15] = dose: 100.0 mg/kg/injection, schedule: Q01DX001 (ip), vehicle: carboxymethylcellulose (CMC)
[16] = dose: 200.0 mg/kg/injection, schedule: Q01DX001 (ip), vehicle: carboxymethylcellulose (CMC)
[17] = dose: 400.0 mg/kg/injection, schedule: Q01DX001 (ip), vehicle: carboxymethylcellulose (CMC)
[18] = dose: 400.0 mg/kg/injection, schedule: Q01DX001 (ip), vehicle: saline
[19] = dose: 100.0 mg/kg/injection, schedule: Q04DX002 (ip), vehicle: Klucel (hydroxypropylcellulose) (HPC)
[20] = dose: 200.0 mg/kg/injection, schedule: Q04DX002 (ip), vehicle: Klucel (hydroxypropylcellulose) (HPC)

Measured: T/C

Cc1ccc2nc(CCl)[nH]c2c1
inactive: dose: 50.0 mg/kg/injection, schedule: Q01DX001 (ip), vehicle: saline 119 % of control | [1] 113 % of control | [2] 107 % of control

O=C(c1ccccc1)c1ccc(-c2ccccc2)cc1
inactive: dose: 87.5 mg/kg/injection, schedule: Q04DX003 (ip), vehicle: Klucel (hydroxypropylcellulose) (HPC) 97 % of control | dose: 175.0 mg/kg/injection, schedule: Q04DX003 (ip), vehicle: Klucel (hydroxypropylcellulose) (HPC) 95 % of control | dose: 350.0 mg/kg/injection, schedule: Q04DX003 (ip), vehicle: Klucel (hydroxypropylcellulose) (HPC) 97 % of control

C=CCc1cc(OC)cc(C(=O)c2cccc(OC)c2C#N)c1OC
inactive: dose: 100.0 mg/kg/injection, schedule: Q01DX001 (ip), vehicle: other 104 % of control and 106 % of control | dose: 100.0 mg/kg/injection, schedule: Q04DX002 (ip), vehicle: other 104 % of control | dose: 100.0 mg/kg/injection, schedule: Q04DX003 (ip), vehicle: other 100 % of control and 92 % of control | dose: 200.0 mg/kg/injection, schedule: Q01DX001 (ip), vehicle: other 95 % of control and 107 % of control | dose: 200.0 mg/kg/injection, schedule: Q04DX002 (ip), vehicle: other 100 % of control and 92 % of control | dose: 200.0 mg/kg/injection, schedule: Q04DX003 (ip), vehicle: other 100 % of control and 92 % of control | dose: 400.0 mg/kg/injection, schedule: Q01DX001 (ip), vehicle: other 118 % of control and 90 % of control | dose: 400.0 mg/kg/injection, schedule: Q04DX002 (ip), vehicle: other 88 % of control and 89 % of control | dose: 400.0 mg/kg/injection, schedule: Q04DX003 (ip), vehicle: other 102 % of control and 92 % of control

CC(C(O)c1ccccc1)N(C)/N=N/c1nc[nH]c1C(N)=O (configuration not stated)
inactive: [3] 92 % of control | [4] 98 % of control | [5] 98 % of control | [6] 90 % of control | [7] 103 % of control | [8] 102 % of control | [9] 92 % of control | [10] 107 % of control | [11] 102 % of control

O=C(Nc1ccc(Cl)cc1[N+](=O)[O-])Oc1ccc(Cl)cc1Cc1ccccc1
inactive: dose: 50.0 mg/kg/injection, schedule: Q04DX003 (ip), vehicle: saline with Tween-80 116 % of control | [3] 98 % of control | [4] 100 % of control and 87 % of control | [12] 98 % of control and 102 % of control | [5] 98 % of control and 92 % of control | [6] 93 % of control | [7] 94 % of control and 95 % of control | [13] 94 % of control and 98 % of control | [8] 102 % of control | [9] 91 % of control | [10] 94 % of control and 90 % of control | [14] 96 % of control and 98 % of control | [11] 102 % of control and 87 % of control

COC1OC(COS(=O)(=O)c2ccc(C)cc2)C(N(C)C(C)=O)C1OS(=O)(=O)c1ccc(C)cc1 (configuration not stated)
inactive: [15] 96 % of control | [16] 91 % of control | [17] 91 % of control

CCOC(=O)c1ccc(NC(=O)c2ccc(Cl)c(Cl)c2)cc1
inactive: [3] 112 % of control | [4] 97 % of control | [12] 97 % of control and 91 % of control | [5] 104 % of control | [6] 115 % of control | [7] 93 % of control and 101 % of control | [13] 93 % of control and 87 % of control | [8] 108 % of control | [9] 93 % of control | [10] 103 % of control and 114 % of control | [14] 93 % of control and 92 % of control | [11] 97 % of control

CC(=O)Nc1c(Cl)c(Cl)c(Cl)c2c1-c1ccc(Cl)cc1C2
inactive: [15] 92 % of control | [16] 101 % of control | [17] 97 % of control

CCCCCCC(=O)C(CCCC)(C(=O)OCC)C(=O)OCC
inactive: dose: 100.0 mg/kg/injection, schedule: Q01DX009 (ip), vehicle: Klucel (hydroxypropylcellulose) (HPC) 101 % of control | dose: 200.0 mg/kg/injection, schedule: Q01DX009 (ip), vehicle: Klucel (hydroxypropylcellulose) (HPC) 104 % of control | dose: 400.0 mg/kg/injection, schedule: Q01DX009 (ip), vehicle: Klucel (hydroxypropylcellulose) (HPC) 101 % of control

CCCCCCCCCCCC(=O)NC(CCC(=O)O)C(=O)O (configuration not stated)
inactive: [1] 111 % of control | [2] 103 % of control | [18] 105 % of control

CNCCN(C)CCN(C)Cc1ccc(OC)cc1
inactive: dose: 25.0 mg/kg/injection, schedule: Q01DX009 (ip), vehicle: water 105 % of control | dose: 50.0 mg/kg/injection, schedule: Q01DX009 (ip), vehicle: water 102 % of control | dose: 100.0 mg/kg/injection, schedule: Q01DX009 (ip), vehicle: water 100 % of control | dose: 200.0 mg/kg/injection, schedule: Q01DX009 (ip), vehicle: water 107 % of control

O=[N+]([O-])c1cc(/C=N/N2CCN(/N=C/c3ccc(Cl)c([N+](=O)[O-])c3)CC2)ccc1Cl
inactive: [1] 96 % of control | [2] 93 % of control | [18] 90 % of control

O=C(OCc1ccccc1CN1CCCC1)c1ccc(Cl)cc1
inactive: [19] 111 % of control | [20] 96 % of control | dose: 400.0 mg/kg/injection, schedule: Q04DX002 (ip), vehicle: Klucel (hydroxypropylcellulose) (HPC) 111 % of control

OCCOc1ccc(-c2ccccc2)cc1
inactive: dose: 75.0 mg/kg/injection, schedule: Q04DX002 (ip), vehicle: Klucel (hydroxypropylcellulose) (HPC) 101 % of control | dose: 150.0 mg/kg/injection, schedule: Q04DX002 (ip), vehicle: Klucel (hydroxypropylcellulose) (HPC) 105 % of control | dose: 300.0 mg/kg/injection, schedule: Q04DX002 (ip), vehicle: Klucel (hydroxypropylcellulose) (HPC) 108 % of control

C=C[P+](c1ccccc1)(c1ccccc1)c1ccccc1
inactive: dose: 0.78 mg/kg/injection, schedule: Q01DX009 (ip), vehicle: saline 124 % of control | dose: 1.56 mg/kg/injection, schedule: Q01DX009 (ip), vehicle: saline 104 % of control | dose: 1.56 mg/kg/injection, schedule: Q04DX003 (ip), vehicle: saline 108 % of control | dose: 3.12 mg/kg/injection, schedule: Q01DX009 (ip), vehicle: saline 93 % of control | dose: 3.12 mg/kg/injection, schedule: Q04DX003 (ip), vehicle: saline 112 % of control | dose: 5.0 mg/kg/injection, schedule: Q01DX001 (ip), vehicle: saline 115 % of control | dose: 8.88 mg/kg/injection, schedule: Q01DX001 (ip), vehicle: saline 102 % of control and 104 % of control | dose: 10.0 mg/kg/injection, schedule: Q01DX001 (ip), vehicle: saline 115 % of control | dose: 10.0 mg/kg/injection, schedule: Q04DX003 (ip), vehicle: saline 98 % of control | dose: 13.34 mg/kg/injection, schedule: Q01DX001 (ip), vehicle: saline 102 % of control and 104 % of control | dose: 20.0 mg/kg/injection, schedule: Q01DX001 (ip), vehicle: saline 102 % of control and 104 % of control | dose: 20.0 mg/kg/injection, schedule: Q04DX003 (ip), vehicle: saline 92 % of control | dose: 30.0 mg/kg/injection, schedule: Q01DX001 (ip), vehicle: saline 101 % of control and 105 % of control | dose: 40.0 mg/kg/injection, schedule: Q01DX001 (ip), vehicle: saline 97 % of control

O=P(Cc1ccccc1)(N1CCOCC1)N1CCOCC1
inactive: dose: 100.0 mg/kg/injection, schedule: Q04DX003 (ip), vehicle: saline 100 % of control | dose: 200.0 mg/kg/injection, schedule: Q04DX003 (ip), vehicle: saline 93 % of control | dose: 400.0 mg/kg/injection, schedule: Q04DX003 (ip), vehicle: saline 104 % of control

CN(C(=O)C1C(C(=O)O)C2(Cl)C(Cl)=C(Cl)C1(Cl)C2(Cl)Cl)C1CCCCC1 (configuration not stated)
inactive: [19] 110 % of control | [20] 98 % of control

CC(=O)NCC(=O)c1ccc(Cl)cc1
inactive: [4] 103 % of control | [5] 102 % of control | [7] 104 % of control | [8] 102 % of control | [10] 121 % of control | [11] 96 % of control

NC(=O)COc1c(Cl)cc(Cl)cc1Cl
inactive: [12] 103 % of control | [13] 103 % of control | [14] 100 % of control

Reference: PubChem BioAssay AID248 (DTP/NCI, 2004)
